According to patent US20230014445A1, “ALLOSTERIC CHROMENONE INHIBITORS OF PHOSPHOINOSITIDE 3-KINASE (PI3K) FOR THE TREATMENT OF DISEASE” (Petra Pharma Corporation, priority 2021, published 2023):
pIC50: −log10 of the molar value. Like-named read-outs stand apart in the source and are kept apart here.

Assays:
[1] = target: PI3K-α (PIK3CA) in MDA-MB-453 cells (Homo sapiens, UniProt P42336); assay: PI3K-Alpha Kinase (PIK3CA) activity in vitro cell based assay (AlphaLisa SureFire)
Description: PI3K-Alpha Kinase (PIK3CA) Activity In Vitro Cell Based Assay and Determining IC50 Values for Inhibitors
The MDA-MB-453 (ATCC-HTB-131) cell line was obtained from the American Type Culture Collection (Manassas, Va.). Cells were maintained in Dulbecco's Modified Eagle Media (DMVEM, Gibco 11965-092) supplemented with 10% Fetal Bovine Serum, heat inactivated (FBS HI, Gibco 10082-147), 1× non-essential amino acids (NEAA, Gibco 11140-050), and 1 mM sodium pyruvate (Gibco 11360-070). Cultures were maintained in a humidified incubator at 37° C. under […].
For compound testing in 0% FBS, MDA-MB-453 cells were seeded at a density of 1.5×10^4 cells per well in white 384-well plates in 20 μl of Minimum Essential Media (MEM) assay media with 1×NEAA, 1 mM sodium pyruvate, and 1 μg/mL human insulin (Sigma I9278). Compounds dissolved in 10 mM stock solutions in DMSO were serially diluted 1:3 in DMSO to generate a 10-point dilution series and plated using an acoustic liquid handler system (Echo 550 Series Liquid Handler, Labcyte). A 5× intermediate compound dilution plate in MEM with 1×NEAA and 1 mM sodium pyruvate (150 μM starting compound concentration in 1.5% DMSO) was then prepared. Five μl of the intermediate serially diluted compounds were added to the cell plate to final concentrations ranging from […] in 0.3% DMSO. 0.3% DMSO alone was used to establish the maximum (MAX) signal and GDC-0032 at a final concentration of 1 μM was used as a reference compound for the minimum (MIN) signal. After 3 hours treatment, the medium was removed, and the cells lysed in 10 μL of 1× SureFire Lysis buffer with shaking for 10 minutes at room temperature. The Acceptor Mix (Reaction Buffer 1+Reaction Buffer 2+Activation Buffer+SureFire Ultra Acceptor Beads) was prepared by diluting Activation buffer 25-fold in combined Reaction Buffer 1 and Reaction Buffer 2. The Acceptor beads were diluted 50-fold in the combined Reaction Buffers. Five μL of Acceptor Mix was added to each well, the plate was sealed and covered with foil and incubated for 1 hour at room temperature. The Donor Mix (dilution buffer+SureFire Ultra Donor Beads) was prepared by diluting Donor Beads 50-fold in dilution buffer. Five μL of the Donor Mix was added to each well and the plate sealed and covered with foil and incubated for 1 hour at room temperature in the dark. The plates were read on a Neo2 plate reader instrument from Biotek using standard AlphaLisa settings.
Compounds were tested in duplicate and the average % inhibition at each compound concentration was used to generate a single dose response curve. The data were processed using the Genedata-Screener tool. Relative IC50 values were determined using luminescence units by calculating percent inhibition with respect to the in-plate “MIN” (GDC-0032 reference control) and “MAX” (DMSO) controls. The data was analyzed using a 4-parameter nonlinear logistic equation (four-parameter logistic concentration-response curve):
Y=bottom+[(top−bottom)/1+(X/IC50)slope]
where Y=% inhibition, X=concentration of inhibitor, bottom=minimum value of y attained by curve-fit, top=maximum value of y attained by curve-fit and slope=steepness of curve at the IC50.
% Inhibition=[(signal at X−median Min)/(median Max−median Min)]×100
IC50: concentration of compound that reduces a given response (ligand binding, enzyme response) by 50%. Relative IC50: concentration giving half the compound's maximum response.
For IC50 values shown in Table B, “A” means IC50<50 nM; “B” means IC50 ranging between 50 nM and 100 nM; “C” means IC50 ranging between 100 nM and 500 nM; “D” means IC50>500 nM.

[2] = target: T1, human full length PIK3KA H1047R mutant (p110α/p85α complex) (Homo sapiens, UniProt P42336, H1047R); assay: PI3K-Alpha Kinase (PIK3CA) biochemical activity, H1047R mutant (ADP-Glo); conditions: 20 uM ATP
T1 construct: Recombinant, catalytically active human full length PIK3KA Wild-type and H1047R mutant were purchased; 6xHis (N); purchased EMD Millipore Sigma 14-792M
T1 sequence (P42336 whole entry H1047R): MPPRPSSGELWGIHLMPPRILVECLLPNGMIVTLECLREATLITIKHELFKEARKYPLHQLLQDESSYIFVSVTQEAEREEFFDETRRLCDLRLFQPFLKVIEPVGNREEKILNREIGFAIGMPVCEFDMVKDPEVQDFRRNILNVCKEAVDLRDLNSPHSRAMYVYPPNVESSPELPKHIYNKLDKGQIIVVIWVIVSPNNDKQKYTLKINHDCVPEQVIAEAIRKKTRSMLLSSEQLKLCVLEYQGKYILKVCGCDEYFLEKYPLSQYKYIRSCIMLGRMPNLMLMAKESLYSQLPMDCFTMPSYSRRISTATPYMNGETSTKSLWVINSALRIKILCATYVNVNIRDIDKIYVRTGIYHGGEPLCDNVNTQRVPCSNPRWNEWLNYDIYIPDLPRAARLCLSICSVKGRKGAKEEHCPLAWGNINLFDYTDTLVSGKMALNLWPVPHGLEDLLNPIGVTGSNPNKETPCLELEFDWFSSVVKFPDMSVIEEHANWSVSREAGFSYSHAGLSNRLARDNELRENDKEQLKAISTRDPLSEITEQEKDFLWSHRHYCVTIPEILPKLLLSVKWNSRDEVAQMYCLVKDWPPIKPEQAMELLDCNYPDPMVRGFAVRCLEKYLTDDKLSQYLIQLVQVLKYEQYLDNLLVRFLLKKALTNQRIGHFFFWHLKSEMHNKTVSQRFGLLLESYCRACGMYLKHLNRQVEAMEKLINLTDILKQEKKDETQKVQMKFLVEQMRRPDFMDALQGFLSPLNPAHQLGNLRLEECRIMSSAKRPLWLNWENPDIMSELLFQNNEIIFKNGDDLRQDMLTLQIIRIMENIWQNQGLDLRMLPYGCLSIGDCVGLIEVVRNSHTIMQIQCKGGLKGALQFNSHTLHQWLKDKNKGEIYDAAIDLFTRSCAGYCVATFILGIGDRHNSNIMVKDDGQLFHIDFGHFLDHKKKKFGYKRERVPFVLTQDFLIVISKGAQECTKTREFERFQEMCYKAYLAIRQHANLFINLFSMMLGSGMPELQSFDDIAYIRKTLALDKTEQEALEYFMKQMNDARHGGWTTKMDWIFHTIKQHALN
T1 sequence (P27986 whole entry partner): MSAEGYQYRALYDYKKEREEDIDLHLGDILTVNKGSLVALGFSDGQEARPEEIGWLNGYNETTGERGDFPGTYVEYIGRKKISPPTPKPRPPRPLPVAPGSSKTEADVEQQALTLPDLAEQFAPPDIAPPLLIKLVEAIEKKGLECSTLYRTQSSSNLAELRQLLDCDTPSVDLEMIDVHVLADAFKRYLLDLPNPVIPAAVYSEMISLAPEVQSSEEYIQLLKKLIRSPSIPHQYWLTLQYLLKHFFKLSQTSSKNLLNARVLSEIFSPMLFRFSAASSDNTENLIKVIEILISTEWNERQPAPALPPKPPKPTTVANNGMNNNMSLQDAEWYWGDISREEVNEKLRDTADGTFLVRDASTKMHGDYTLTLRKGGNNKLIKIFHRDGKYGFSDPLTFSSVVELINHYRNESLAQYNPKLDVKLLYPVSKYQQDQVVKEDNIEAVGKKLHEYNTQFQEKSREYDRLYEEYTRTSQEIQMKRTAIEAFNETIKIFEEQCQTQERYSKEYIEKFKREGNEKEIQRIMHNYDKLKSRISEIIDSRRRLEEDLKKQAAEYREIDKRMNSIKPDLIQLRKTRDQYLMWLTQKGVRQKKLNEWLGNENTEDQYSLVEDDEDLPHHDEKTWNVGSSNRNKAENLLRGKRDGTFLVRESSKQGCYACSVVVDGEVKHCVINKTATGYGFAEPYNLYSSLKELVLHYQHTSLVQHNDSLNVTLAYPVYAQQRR
Outline: (§1)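 ADP formation, measured by ADP-Glo luminescence after reaction to about 10% ATP conversion at 27° C., gives 10-point 4-parameter IC50 curves normalized to no-enzyme and DMSO controls. Lipid substrate was PIP2diC8 or Soy PI at 50 uM, with 20 uM ATP. WT or H1047R p110α/p85α complex (1-5 nM) was preincubated 1 h with compound.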

[3] = target: T2, human full length PIK3KA Wild-type (p110α/p85α complex) (Homo sapiens, UniProt P42336); assay: PI3K-Alpha Kinase (PIK3CA) biochemical activity, wild-type (ADP-Glo); conditions: 20 uM ATP
T2 construct: Recombinant, catalytically active human full length PIK3KA Wild-type and H1047R mutant were purchased; 6xHis (N); purchased EMD Millipore Sigma 14-602M
Outline: as §1

[4] = read-out: PI3K-α (PIK3CA) in vitro cell based assay IC50, 0% FBS, 3 hours treatment
[5] = 0% FBS, 3 hours treatment, read-out: PI3K-α (PIK3CA) in vitro cell based assay IC50

Chain of PI3K-α (PIK3CA) in MDA-MB-453 cells (P42336 whole entry): as the sequence (P42336 whole entry H1047R) above, with R1047H counted along it
Chain of PI3K-α (PIK3CA) in MDA-MB-453 cells (P27986 2-724, further chain): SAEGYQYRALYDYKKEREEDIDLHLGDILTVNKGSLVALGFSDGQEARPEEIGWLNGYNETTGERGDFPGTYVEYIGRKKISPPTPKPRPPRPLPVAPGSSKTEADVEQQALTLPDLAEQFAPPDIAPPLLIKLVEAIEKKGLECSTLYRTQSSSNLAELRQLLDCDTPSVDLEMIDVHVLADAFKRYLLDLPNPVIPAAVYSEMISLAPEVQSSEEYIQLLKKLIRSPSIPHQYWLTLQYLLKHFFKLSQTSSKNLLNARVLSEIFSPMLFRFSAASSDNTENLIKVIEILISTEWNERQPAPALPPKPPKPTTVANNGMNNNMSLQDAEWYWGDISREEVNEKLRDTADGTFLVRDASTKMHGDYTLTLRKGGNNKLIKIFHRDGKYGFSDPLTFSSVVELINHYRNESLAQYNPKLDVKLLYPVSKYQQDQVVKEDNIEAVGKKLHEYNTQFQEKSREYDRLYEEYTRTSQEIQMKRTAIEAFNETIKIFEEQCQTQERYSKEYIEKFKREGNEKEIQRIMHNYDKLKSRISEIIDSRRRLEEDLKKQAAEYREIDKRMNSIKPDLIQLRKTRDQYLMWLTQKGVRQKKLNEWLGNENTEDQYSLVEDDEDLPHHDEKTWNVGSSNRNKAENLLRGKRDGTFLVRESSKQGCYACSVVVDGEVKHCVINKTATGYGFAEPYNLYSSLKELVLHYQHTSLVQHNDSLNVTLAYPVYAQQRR

With `COc1ccc(-n2cc(-c3cc(=O)c4cc(C)cc(C(C)Nc5ccccc5C(=O)O)c4o3)nn2)cc1OC` (single isomer, unassigned) [Example 133, 2-[1-[2-[1-(3,4-Dimethoxyphenyl)triazol-4-yl]-6-methyl-4-oxo-chromen-8-yl]ethylamino]benzoic acid, Isomer 2,2,2,2-trifluoroacetic acid] as the molecule, how does the pIC50 [1, 4] read?
Its pIC50 is 6.30 to 7.00.

With `COc1ccc(-n2nncc2-c2cc(=O)c3cc(C)cc(C(C)Nc4ccccc4C(=O)O)c3o2)cc1OC` (single isomer, unassigned) [Example 134, 2-[1-[2-[3-(3,4-Dimethoxyphenyl)triazol-4-yl]-6-methyl-4-oxo-chromen-8-yl]ethylamino]benzoic acid, Isomer 2,2,2,2-trifluoroacetic acid] as the molecule, how does the pIC50 [1, 4] read?
Its pIC50 is < 6.30.

`Cc1cc(C(C)Nc2ccccc2C(=O)O)c2oc(-c3cnn(C)c3)c(C)c(=O)c2c1` (single isomer, unassigned; isomer 1) [Example 136, 2-[1-[3,6-Dimethyl-2-(1-methylpyrazol-4-yl)-4-oxo-chromen-8-yl]ethylamino]benzoic acid, Isomer 1] was tested. Which pIC50 [1, 5] did it give?
Its pIC50 is > 7.30.

With `Cc1cc(C(C)Nc2ccc(Cl)nc2C(=O)O)c2oc(-c3cncc(F)c3)c(C)c(=O)c2c1` (single isomer, unassigned; isomer 1) [Example 138, 6-Chloro-3-[1-[2-(5-fluoro-3-pyridyl)-3,6-dimethyl-4-oxo-chromen-8-yl]ethylamino]pyridine-2-carboxylic acid, Isomer 1] as the molecule, how does the pIC50 [1, 5] read?
The pIC50 was > 7.30.

With `Cc1cc(C(C)Nc2cccnc2C(=O)O)c2oc(-c3cccc(C(F)F)n3)c(C)c(=O)c2c1` (single isomer, unassigned; isomer 1) [Example 139, 3-[1-[2-[6-(Difluoromethyl)-2-pyridyl]-3,6-dimethyl-4-oxo-chromen-8-yl]ethylamino]pyridine-2-carboxylic acid; 2,2,2-trifluoroacetic acid, Isomer 1] as the molecule, how does the pIC50 [1, 4] read?
Its pIC50 is 6.30 to 7.00.

How did the pIC50 [1, 5] turn out when `Cc1cc(C(C)Nc2cccc(F)c2C(=O)O)c2oc(-c3ccccn3)c(C)c(=O)c2c1` (single isomer, unassigned; isomer 1) [Example 140, 2-[1-[3,6-Dimethyl-4-oxo-2-(2-pyridyl)chromen-8-yl]ethylamino]-6-fluoro-benzoic acid, Isomer 1] was run?
The pIC50 was 7.00 to 7.30.

How did the pIC50 [1, 5] turn out when `Cc1cc(C(C)Nc2ccc(Cl)nc2C(=O)O)c2oc(-c3cccc(C(F)F)n3)c(C)c(=O)c2c1` (single isomer, unassigned; isomer 1) [Example 141, 6-Chloro-3-[1-[2-[6-(difluoromethyl)-2-pyridyl]-3,6-dimethyl-4-oxo-chromen-8-yl]ethylamino]pyridine-2-carboxylic acid, Isomer 1] was run?
The pIC50 was > 7.30.

With `Cc1cc(C(C)Nc2ccccc2C(=O)O)c2oc(-c3ccc(S(C)(=O)=O)nc3)cc(=O)c2c1` (stereo not shown) [Example 7, 2-[1-[6-Methyl-2-(6-methylsulfonyl-3-pyridyl)-4-oxo-chromen-8-yl]ethylamino]benzoic acid 2,2,2-trifluoroacetic acid] as the molecule, how does the pIC50 ([2]; Soy PI lipid substrate) read?
Its pIC50 is > 6.30.

What about the pIC50 ([3]; Soy PI lipid substrate) of the same molecule?
Its pIC50 is < 5.00.

`Cc1cc(C(C)Nc2ccccc2C(=O)O)c2oc(-c3ccc(C(F)(F)F)nc3)cc(=O)c2c1` (stereo not shown) [Example 8, 2-[1-[6-Methyl-4-oxo-2-[6-(trifluoromethyl)-3-pyridyl]chromen-8-yl]ethylamino]benzoic acid 2,2,2-trifluoroacetic acid] was tested. Which pIC50 ([2]; Soy PI lipid substrate) did it give?
The pIC50 was > 6.30.

And the pIC50 ([3]; Soy PI lipid substrate)?
Its pIC50 is 5.00 to 5.30.

How did the pIC50 ([2]; Soy PI lipid substrate) turn out when `Cc1cc(C(C)Nc2ccccc2C(=O)O)c2oc(-c3ccc(F)nc3)cc(=O)c2c1` (stereo not shown) [Example 9, 2-[1-[2-(6-Fluoro-3-pyridyl)-6-methyl-4-oxo-chromen-8-yl]ethylamino]benzoic acid 2,2,2-trifluoroacetic acid] was run?
Its pIC50 is > 6.30.

What about the pIC50 ([3]; Soy PI lipid substrate) of the same molecule?
The pIC50 was 5.00 to 5.30.

`Cc1cc(C(C)Nc2ccccc2C(=O)O)c2oc(-c3cc(C#N)ccn3)cc(=O)c2c1` (stereo not shown) [Example 10, 2-[1-[2-(4-Cyano-2-pyridyl)-6-methyl-4-oxo-chromen-8-yl]ethylamino]benzoic acid 2,2,2-trifluoroacetic acid] was tested. Which pIC50 ([2]; Soy PI lipid substrate) did it give?
The pIC50 was 6.00 to 6.30.

And the pIC50 ([3]; Soy PI lipid substrate)?
Its pIC50 is 5.30 to 6.00.

What does the source list for `COc1cccc(-c2cc(=O)c3cc(C)cc(C(C)Nc4ccccc4C(=O)O)c3o2)n1` (stereo not shown) [Example 11, 2-[1-[2-(6-Methoxy-2-pyridyl)-6-methyl-4-oxo-chromen-8-yl]ethylamino]benzoic acid 2,2,2-trifluoroacetic acid]?
pIC50 ([2]; Soy PI lipid substrate): > 6.30; pIC50 ([3]; Soy PI lipid substrate): 6.00 to 6.30

`COc1ccc(-c2cc(=O)c3cc(C)cc(C(C)Nc4ccccc4C(=O)O)c3o2)cn1` (stereo not shown) [Example 12, 2-[1-[2-(6-Methoxy-3-pyridyl)-6-methyl-4-oxo-chromen-8-yl]ethylamino]benzoic acid 2,2,2-trifluoroacetic acid] was tested. Which pIC50 ([2]; Soy PI lipid substrate) did it give?
Its pIC50 is > 6.30.

And the pIC50 ([3]; Soy PI lipid substrate)?
The pIC50 was 5.30 to 6.00.

With `Cc1cc(C(C)Nc2ccccc2C(=O)O)c2oc(-c3cnc(C)nc3)cc(=O)c2c1` (stereo not shown) [Example 13, 2-[1-[6-Methyl-2-(2-methylpyrimidin-5-yl)-4-oxo-chromen-8-yl]ethylamino]benzoic acid 2,2,2-trifluoroacetic acid] as the molecule, how does the pIC50 ([2]; Soy PI lipid substrate) read?
The pIC50 was 6.00 to 6.30.

What about the pIC50 ([3]; Soy PI lipid substrate) of the same molecule?
Its pIC50 is < 5.00.

What does the source list for `Cc1cc(C(C)Nc2ccccc2C(=O)O)c2oc(-c3ccc(F)cn3)cc(=O)c2c1` (stereo not shown) [Example 23, 2-[1-[2-(5-Fluoro-2-pyridyl)-6-methyl-4-oxo-chromen-8-yl]ethylamino]benzoic acid 2,2,2-trifluoroacetic acid]?
pIC50 ([2]; Soy PI lipid substrate): > 6.30; pIC50 ([3]; Soy PI lipid substrate): 5.00 to 5.30

With `Cc1cc(C(C)Nc2ccccc2C(=O)O)c2oc(-c3cnn(C)c3)cc(=O)c2c1` (stereo not shown) [Example 47, 2-[1-[6-Methyl-2-(1-methylpyrazol-4-yl)-4-oxo-chromen-8-yl]ethylamino]benzoic acid] as the molecule, how does the pIC50 ([2]; PIP2diC8 lipid substrate) read?
The pIC50 was 6.00 to 6.30.

And the pIC50 ([3]; PIP2diC8 lipid substrate)?
Its pIC50 is 5.30 to 6.00.

How did the pIC50 ([2]; Soy PI lipid substrate) turn out when `Cc1cc(C(C)Nc2ccccc2C(=O)O)c2oc(-c3cnn(-c4cccnc4)c3)cc(=O)c2c1` (stereo not shown) [Example 48, 2-[1-[6-Methyl-4-oxo-2-[1-(3-pyridyl)pyrazol-4-yl]chromen-8-yl]ethylamino]benzoic acid 2,2,2-trifluoroacetic acid] was run?
Its pIC50 is > 6.30.

And the pIC50 ([3]; Soy PI lipid substrate)?
The pIC50 was 5.00 to 5.30.

How did the pIC50 ([2]; Soy PI lipid substrate) turn out when `Cc1cc(C(C)Nc2cccc(F)c2C(=O)O)c2oc(-c3ccccn3)cc(=O)c2c1` (stereo not shown) [Example 100, 2-Fluoro-6-[1-[6-methyl-4-oxo-2-(2-pyridyl)chromen-8-yl]ethylamino]benzoic acid 2,2,2-trifluoroacetic acid] was run?
Its pIC50 is > 6.30.

And the pIC50 ([3]; Soy PI lipid substrate)?
The pIC50 was < 5.00.

What does the source list for `Cc1cc(C(C)Nc2cccc(F)c2C(=O)O)c2oc(-c3cnn(-c4ccc(C#N)cc4)c3)cc(=O)c2c1` (stereo not shown) [Example 101, 2-[1-[2-[1-(4-Cyanophenyl)pyrazol-4-yl]-6-methyl-4-oxo-chromen-8-yl]ethylamino]-6-fluoro-benzoic acid 2,2,2-trifluoroacetic acid]?
pIC50 ([2]; Soy PI lipid substrate): > 6.30; pIC50 ([3]; Soy PI lipid substrate): 6.00 to 6.30
